Measured values: PubChem BioAssay AID1918938 (Molecular Pharmacology Branch, DTP, NCI, 2023)

System: 556581-035-R-J1-PDC complex spheroid viability
Test: Anticancer human tumor 556581-035-R-J1-PDC patient-derived ovarian carcinoma cell line growth inhibition
Details: for IC50: curve of first compound; for viability, T/C: stronger effect = lower value
How it was run: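 Drug combinations with the LSD1 inhibitor iadademstat tested on tumor cells co-cultured as spheroids with endothelial cells and mesenchymal stem cells. Concentrations descended in half-log increments from clinical Cmax or 10 microM.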

[1] = second compound 0.1 µM, first compound 0.000949 µM
[2] = second compound 0.1 µM, first compound 0.003 µM
[3] = second compound 0.1 µM, first compound 0.00949 µM
[4] = second compound 0.1 µM, first compound 0.03 µM
[5] = second compound 0.1 µM, first compound 0.0949 µM
[6] = second compound 0.1 µM, first compound 0.3 µM
[7] = second compound 0.316 µM, first compound 0.000949 µM
[8] = second compound 0.316 µM, first compound 0.003 µM
[9] = second compound 0.316 µM, first compound 0.00949 µM
[10] = second compound 0.316 µM, first compound 0.03 µM
[11] = second compound 0.316 µM, first compound 0.0949 µM
[12] = second compound 0.316 µM, first compound 0.3 µM
[13] = second compound 1 µM, first compound 0.000949 µM
[14] = second compound 1 µM, first compound 0.003 µM
[15] = second compound 1 µM, first compound 0.00949 µM
[16] = second compound 1 µM, first compound 0.03 µM
[17] = second compound 1 µM, first compound 0.0949 µM
[18] = second compound 1 µM, first compound 0.3 µM
[19] = second compound 3.16 µM, first compound 0.000949 µM
[20] = second compound 3.16 µM, first compound 0.003 µM
[21] = second compound 3.16 µM, first compound 0.00949 µM
[22] = second compound 3.16 µM, first compound 0.03 µM
[23] = second compound 3.16 µM, first compound 0.0949 µM
[24] = second compound 3.16 µM, first compound 0.3 µM
[25] = second compound 10 µM, first compound 0.000949 µM
[26] = second compound 10 µM, first compound 0.003 µM
[27] = second compound 10 µM, first compound 0.00949 µM
[28] = second compound 10 µM, first compound 0.03 µM
[29] = second compound 10 µM, first compound 0.0949 µM
[30] = second compound 10 µM, first compound 0.3 µM
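Further: spheroids exposed to agents for seven days.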
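Wherever viability, T/C is given: 100% = DMSO vehicle control wells.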

Structure (SMILES): CC[C@@]1(O)C(=O)OCc2c1cc1n(c2=O)Cc2cc3c(CN(C)C)c(O)ccc3nc2-1 + NC1CCC(NC2CC2c2ccccc2)CC1
- IC50 (second compound 0.1 µM): 14.7 nM
- IC50 (second compound 0.316 µM): 13.9 nM
- IC50 (second compound 1 µM): 14.4 nM
- IC50 (second compound 3.16 µM): 18.8 nM
- IC50 (second compound 10 µM): 11.5 nM
- viability, T/C (second compound 0.1 µM, first compound 0.000316 µM): 78.7%
- viability, T/C (second compound 0.1 µM, first compound 0.001 µM): 91.5%
- viability, T/C (second compound 0.1 µM, first compound 0.00316 µM): 79%
- viability, T/C (second compound 0.1 µM, first compound 0.01 µM): 57.6%
- viability, T/C (second compound 0.1 µM, first compound 0.0316 µM): 31.9%
- viability, T/C (second compound 0.1 µM, first compound 0.1 µM): 9.52%
- viability, T/C (second compound 0.316 µM, first compound 0.000316 µM): 91.4%
- viability, T/C (second compound 0.316 µM, first compound 0.001 µM): 82.2%
- viability, T/C (second compound 0.316 µM, first compound 0.00316 µM): 81.8%
- viability, T/C (second compound 0.316 µM, first compound 0.01 µM): 55%
- viability, T/C (second compound 0.316 µM, first compound 0.0316 µM): 32.5%
- viability, T/C (second compound 0.316 µM, first compound 0.1 µM): 13.3%
- viability, T/C (second compound 1 µM, first compound 0.000316 µM): 79%
- viability, T/C (second compound 1 µM, first compound 0.001 µM): 81.3%
- viability, T/C (second compound 1 µM, first compound 0.00316 µM): 72.2%
- viability, T/C (second compound 1 µM, first compound 0.01 µM): 58%
- viability, T/C (second compound 1 µM, first compound 0.0316 µM): 32.8%
- viability, T/C (second compound 1 µM, first compound 0.1 µM): 10.1%
- viability, T/C (second compound 3.16 µM, first compound 0.000316 µM): 72.5%
- viability, T/C (second compound 3.16 µM, first compound 0.001 µM): 89.8%
- viability, T/C (second compound 3.16 µM, first compound 0.00316 µM): 73.9%
- viability, T/C (second compound 3.16 µM, first compound 0.01 µM): 63.8%
- viability, T/C (second compound 3.16 µM, first compound 0.0316 µM): 38.5%
- viability, T/C (second compound 3.16 µM, first compound 0.1 µM): 10%
- viability, T/C (second compound 10 µM, first compound 0.000316 µM): 64.4%
- viability, T/C (second compound 10 µM, first compound 0.001 µM): 67.1%
- viability, T/C (second compound 10 µM, first compound 0.00316 µM): 64.8%
- viability, T/C (second compound 10 µM, first compound 0.01 µM): 51.8%
- viability, T/C (second compound 10 µM, first compound 0.0316 µM): 29.2%
- viability, T/C (second compound 10 µM, first compound 0.1 µM): 7.41%

Structure (SMILES): CCc1c2c(nc3ccc(O)cc13)-c1cc3c(c(=O)n1C2)COC(=O)[C@]3(O)CC + NC1CCC(NC2CC2c2ccccc2)CC1
- IC50 (second compound 0.1 µM): < 0.949 nM
- IC50 (second compound 0.316 µM): < 0.949 nM
- IC50 (second compound 1 µM): < 0.949 nM
- IC50 (second compound 3.16 µM): < 0.949 nM
- IC50 (second compound 10 µM): < 0.949 nM
- viability, T/C [1]: 20.5%
- viability, T/C [2]: 10.8%
- viability, T/C [3]: 2.17%
- viability, T/C [4]: 0.64%
- viability, T/C [5]: 0.13%
- viability, T/C [6]: 0.25%
- viability, T/C [7]: 20.3%
- viability, T/C [8]: 12.4%
- viability, T/C [9]: 3.03%
- viability, T/C [10]: 1.28%
- viability, T/C [11]: 0.23%
- viability, T/C [12]: 0.24%
- viability, T/C [13]: 20.2%
- viability, T/C [14]: 13.4%
- viability, T/C [15]: 2.69%
- viability, T/C [16]: 0.95%
- viability, T/C [17]: 1.3%
- viability, T/C [18]: 0.52%
- viability, T/C [19]: 20.9%
- viability, T/C [20]: 10.9%
- viability, T/C [21]: 2.33%
- viability, T/C [22]: 0.37%
- viability, T/C [23]: 0.36%
- viability, T/C [24]: 0.53%
- viability, T/C [25]: 20.1%
- viability, T/C [26]: 10.3%
- viability, T/C [27]: 2.5%
- viability, T/C [28]: 0.37%
- viability, T/C [29]: 0.19%
- viability, T/C [30]: 0.32%

Structure (SMILES): COc1cc(C2c3cc4c(cc3C(OC3OC5COC(C)OC5C(O)C3O)C3COC(=O)C23)OCO4)cc(OC)c1O (stereo not given) + NC1CCC(NC2CC2c2ccccc2)CC1
- IC50 (second compound 0.1 µM): 481 nM
- IC50 (second compound 0.316 µM): 451 nM
- IC50 (second compound 1 µM): 559 nM
- IC50 (second compound 3.16 µM): 501 nM
- IC50 (second compound 10 µM): 330 nM
- viability, T/C [3]: 86.7%
- viability, T/C [4]: 84.7%
- viability, T/C [5]: 68.6%
- viability, T/C [6]: 55.5%
- viability, T/C (second compound 0.1 µM, first compound 0.949 µM): 42.3%
- viability, T/C (second compound 0.1 µM, first compound 3 µM): 26.2%
- viability, T/C [9]: 107%
- viability, T/C [10]: 84.7%
- viability, T/C [11]: 75.3%
- viability, T/C [12]: 58.6%
- viability, T/C (second compound 0.316 µM, first compound 0.949 µM): 36.1%
- viability, T/C (second compound 0.316 µM, first compound 3 µM): 23.9%
- viability, T/C [15]: 76.8%
- viability, T/C [16]: 76.2%
- viability, T/C [17]: 68.3%
- viability, T/C [18]: 58.8%
- viability, T/C (second compound 1 µM, first compound 0.949 µM): 42.6%
- viability, T/C (second compound 1 µM, first compound 3 µM): 19.2%
- viability, T/C [21]: 88.6%
- viability, T/C [22]: 66.5%
- viability, T/C [23]: 74.9%
- viability, T/C [24]: 53.5%
- viability, T/C (second compound 3.16 µM, first compound 0.949 µM): 45.8%
- viability, T/C (second compound 3.16 µM, first compound 3 µM): 23.4%
- viability, T/C [27]: 71.3%
- viability, T/C [28]: 68.4%
- viability, T/C [29]: 68.7%
- viability, T/C [30]: 48.3%
- viability, T/C (second compound 10 µM, first compound 0.949 µM): 38.8%
- viability, T/C (second compound 10 µM, first compound 3 µM): 28.4%

Structure (SMILES): Nc1ccn(C2OC(CO)C(O)C2(F)F)c(=O)n1 (stereo not given) + NC1CCC(NC2CC2c2ccccc2)CC1
- IC50 (second compound 0.1 µM): 2.48 nM
- IC50 (second compound 0.316 µM): 2.57 nM
- IC50 (second compound 1 µM): 2.34 nM
- IC50 (second compound 3.16 µM): 2.4 nM
- IC50 (second compound 10 µM): 1.98 nM
- viability, T/C [1]: 75.4%
- viability, T/C [2]: 44.4%
- viability, T/C [3]: 43.3%
- viability, T/C [4]: 39.6%
- viability, T/C [5]: 40.3%
- viability, T/C [6]: 36.5%
- viability, T/C [7]: 76.9%
- viability, T/C [8]: 45.8%
- viability, T/C [9]: 33.2%
- viability, T/C [10]: 36%
- viability, T/C [11]: 34.5%
- viability, T/C [12]: 34.1%
- viability, T/C [13]: 65.5%
- viability, T/C [14]: 48.3%
- viability, T/C [15]: 33.5%
- viability, T/C [16]: 42.7%
- viability, T/C [17]: 40.5%
- viability, T/C [18]: 37.8%
- viability, T/C [19]: 63%
- viability, T/C [20]: 46.3%
- viability, T/C [21]: 41.5%
- viability, T/C [22]: 42.8%
- viability, T/C [23]: 40.7%
- viability, T/C [24]: 36.1%
- viability, T/C [25]: 61.1%
- viability, T/C [26]: 44.9%
- viability, T/C [27]: 36.8%
- viability, T/C [28]: 42.2%
- viability, T/C [29]: 38.3%
- viability, T/C [30]: 42.7%
